In publication PMC9422132, “Membrane transporters control cerebrospinal fluid formation independently of conventional osmosis to modulate intracranial pressure” (Fluids and Barriers of the CNS, 2022):

Biological target: T1, NBCe2 (Rattus norvegicus, UniProt Q6RI88)
T1 construct: gene Slc4a5
T1 sequence (Q6RI88 1-1112): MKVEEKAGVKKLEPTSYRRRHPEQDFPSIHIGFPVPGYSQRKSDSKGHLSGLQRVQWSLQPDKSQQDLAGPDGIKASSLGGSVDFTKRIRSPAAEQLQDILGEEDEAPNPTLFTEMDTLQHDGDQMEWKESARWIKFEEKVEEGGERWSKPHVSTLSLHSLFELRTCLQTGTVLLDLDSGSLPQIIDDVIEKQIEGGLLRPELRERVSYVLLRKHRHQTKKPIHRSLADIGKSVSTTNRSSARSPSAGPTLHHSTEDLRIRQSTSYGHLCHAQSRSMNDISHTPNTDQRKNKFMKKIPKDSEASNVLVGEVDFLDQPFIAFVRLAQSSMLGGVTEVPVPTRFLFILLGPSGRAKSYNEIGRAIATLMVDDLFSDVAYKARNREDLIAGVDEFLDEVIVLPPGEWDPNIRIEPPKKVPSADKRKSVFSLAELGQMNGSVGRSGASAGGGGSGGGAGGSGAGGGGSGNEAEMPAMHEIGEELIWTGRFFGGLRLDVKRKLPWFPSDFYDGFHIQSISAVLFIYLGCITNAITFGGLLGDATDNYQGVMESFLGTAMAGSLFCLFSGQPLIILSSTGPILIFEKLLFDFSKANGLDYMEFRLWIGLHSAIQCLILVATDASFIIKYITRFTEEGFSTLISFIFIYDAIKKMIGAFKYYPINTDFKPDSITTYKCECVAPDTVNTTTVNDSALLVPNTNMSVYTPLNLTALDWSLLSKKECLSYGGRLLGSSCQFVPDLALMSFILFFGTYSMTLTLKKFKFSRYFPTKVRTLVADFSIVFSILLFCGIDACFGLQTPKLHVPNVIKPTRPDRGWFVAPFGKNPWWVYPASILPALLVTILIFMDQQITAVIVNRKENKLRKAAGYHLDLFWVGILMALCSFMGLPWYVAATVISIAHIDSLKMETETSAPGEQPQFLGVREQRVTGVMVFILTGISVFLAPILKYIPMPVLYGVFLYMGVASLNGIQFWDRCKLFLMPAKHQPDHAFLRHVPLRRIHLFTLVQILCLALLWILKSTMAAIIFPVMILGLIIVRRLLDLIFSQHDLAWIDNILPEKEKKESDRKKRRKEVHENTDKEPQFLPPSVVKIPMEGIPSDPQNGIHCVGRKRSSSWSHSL
Assay: two-electrode voltage clamp of rat NBCe2 expressed in Xenopus laevis oocytes
Type: cell-based

| IC50 [µM] | Compound |
| --- | --- |
| 4.5 ± 1.8 | O=S(=O)(O)c1cc(N=C=S)ccc1/C=C/c1ccc(N=C=S)cc1S(=O)(=O)O [DIDS] |
| 10.7 ± 0.9 | Cc1ccc(CN(Cc2ccc(-c3ccccc3S(=O)(=O)NC#N)cc2)C(=O)c2ccccc2Cl)cc1 [S0859] |
